Patent US20230066315A1, “COMPOUNDS AND USES THEREOF” (Nuvation Bio Inc., priority 2019, published 2023)

Columns and labels:
[1] = molecular target: T1, adenosine A2a (human) membrane (Homo sapiens, UniProt P29274); experiment: A2A adenosine receptor radioligand binding assay ([3H] CGS-21680); conditions: radioligand [3H] CGS-21680 6 nM, RT 2 hours
T1 construct: purchased PerkinElmer RBHA2AM400UA
Description: A second A2A adenosine receptor radioligand binding assay protocol was used. The protocol used adenosine A2a (human) membrane (PerkinElmer RBHA2AM400UA) at a concentration of […]/well/100 μl and the radioligand [3H] CGS-21680 (Cat No. PerkinElmer-NET1021250UC) at a final concentration of 6 nM. Testing compounds were diluted with DMSO to make 8-point 4-fold serial dilution, starting at 0.2 mM. CGS-15943 was the reference compound. 1 μl of compounds/high control/low control was transferred to the assay plate according to a plate map, followed by 100 μl of membrane stocks and 100 μl of radioligand, in assay buffer (50 mM Tris-HCl, 10 mM MgCl2, 1 mM EDTA, pH 7.4). The plate was sealed and incubated at RT for 2 hours. Unifilter-96 GF/C filter plates (Perkin Elmer Cat #6005174) were soaked with 50 μl of 0.3% PEI per well for at least 0.5 hour at room temperature. When the binding assays were completed, the reaction mixtures were filtered through GF/C plates using Perkin Elmer Filtermate Harvester, and each plate washed 4 times with cold wash buffer (50 mM Tris-HCl, 154 mM NaCl, pH 7.4). The filter plates were dried for 1 hour at 50 degrees. After drying, the bottom of the filter plate wells was sealed, 50 μl of Perkin Elmer Microscint 20 cocktail was added, and the top of the filter plate was sealed. ^3H trapped on the filter was counted using Perkin Elmer MicroBeta2 Reader. The data were analyzed with GraphPad Prism 5 to obtain binding IC50 values. The “Inhibition [% Control]” was calculated using the equation: % Inh=(1−Background subtracted Assay value/Background subtracted HC value)*100, where HC is high control.

[2] = molecular target: T2, human recombinant adenosine A2A receptor (Homo sapiens, UniProt P29274); experiment: cAMP assay (Assay 2) in HEK-293 cells expressing A2A receptor; assay type: cell-based; conditions: HEK-293 cells expressing human recombinant adenosine A2A receptor; reducing A2A cAMP levels
T2 construct: expressed in transfected cells; host or cells: HEK-293
T2 sequence (P29274 whole entry): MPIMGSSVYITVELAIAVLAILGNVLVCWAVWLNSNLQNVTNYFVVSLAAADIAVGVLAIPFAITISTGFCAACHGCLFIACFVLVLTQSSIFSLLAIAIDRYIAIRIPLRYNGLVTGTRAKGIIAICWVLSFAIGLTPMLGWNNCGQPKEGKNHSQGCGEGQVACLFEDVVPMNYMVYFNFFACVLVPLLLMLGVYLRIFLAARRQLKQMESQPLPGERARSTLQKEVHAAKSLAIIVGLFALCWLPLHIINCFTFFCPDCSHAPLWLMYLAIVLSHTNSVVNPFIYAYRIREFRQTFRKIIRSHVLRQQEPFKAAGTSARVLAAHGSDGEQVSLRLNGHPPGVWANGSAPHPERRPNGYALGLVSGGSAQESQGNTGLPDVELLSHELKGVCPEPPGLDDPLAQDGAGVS
Description: The functional activity of compound 1.5 was tested using Assay 2 below, to detect the presence of cAMP. Assay 1 is an alternative assay for this purpose. Activation of G-protein coupled receptors (such as A2A) results in activation of adenylyl cyclase which converts ATP into cAMP which is used as a downstream signaling molecule. Molecules which act as GPCR (or specifically A2A receptor) antagonists cause a decrease in intracellular cAMP concentration.
Assay 2 (Table B2): This assay used HEK-293 cells expressing human recombinant adenosine A2A receptor that were grown prior to the test in media without antibiotic. 100 nL of test articles at 100× of final concentration were transferred to assay plate by Echo. Cells were washed twice with 5 mL of PBS and 10 pL of cells were mixed with 5 mL PBS. After aspirating the PBS and adding 1.5 mL versine, cells were incubated at 37° C. for 2-5 min. After centrifugation, 4 mL of medium was added and adjusted cell density to 5,000 cells/well with Stimulation Buffer. 10 pL of cells were aliquoted to the assay plate, centrifuged at 1000 rpm for 1 minute, and incubated for 60 minutes at room temperature. 5 pL 4× Eu-cAMP tracer solution and 5 pL 4× Ulight™-anti-cAMP solution were added to assay plate, followed by centrifugation and 60-minute incubation at room temperature. Plates were read on EnVision. […]

T1 sequence (P29274 whole entry): as above

IC50 [1] | IC50 [2] | SMILES
5.5 nM | – | O=c1ccc2nc(-c3ccc4ncccc4c3)c(-c3ccccc3)nc2[nH]1 [Compound 1.4, 3-phenyl-2-(quinolin-6-yl)pyrido[2,3-b]pyrazin-6(5H)-one]
18 nM | 325 nM | O=c1cc[nH]c2nc(-c3ccccc3)c(-c3ccc4ncccc4c3)nc12 [Compound 1.5, 3-phenyl-2-(quinolin-6-yl)pyrido[2,3-b]pyrazin-8(5H)-one]
958 nM | – | Cn1ccc(=O)c2nc(-c3ccc4ncccc4c3)c(-c3ccccc3)nc21 [Compound 1.8, 5-methyl-3-phenyl-2-(quinolin-6-yl)pyrido[2,3-b]pyrazin-8(5H)-one]
6.6 nM | – | O=c1ccc2nc(-c3cc(Cl)c4ncccc4c3)c(-c3ccccc3)nc2[nH]1 [Compound 1.12, 2-(8-chloroquinolin-6-yl)-3-phenylpyrido[2,3-b]pyrazin-6(5H)-one]
